Source: patent publication US9440982B2 (Eolas Therapeutics, Inc., priority 2012, dated 2016)

Target: T1, OX1 (Homo sapiens, UniProt O43613)
T1 construct: expressed in transfected cells; host or cells: CHO (CHO-OX1, kept under selection antibiotic)
T1 sequence (O43613 1-425): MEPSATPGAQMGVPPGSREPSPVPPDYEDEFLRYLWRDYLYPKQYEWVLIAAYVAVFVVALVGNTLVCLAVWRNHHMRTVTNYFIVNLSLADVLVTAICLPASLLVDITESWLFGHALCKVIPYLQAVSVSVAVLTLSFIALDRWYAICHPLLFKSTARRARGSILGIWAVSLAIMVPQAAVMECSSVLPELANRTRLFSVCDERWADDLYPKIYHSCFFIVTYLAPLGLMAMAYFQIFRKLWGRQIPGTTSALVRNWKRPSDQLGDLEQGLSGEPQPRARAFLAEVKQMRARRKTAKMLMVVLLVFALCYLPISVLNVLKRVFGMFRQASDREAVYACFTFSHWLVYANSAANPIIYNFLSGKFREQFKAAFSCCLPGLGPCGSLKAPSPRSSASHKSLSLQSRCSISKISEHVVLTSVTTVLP
Assay: Orexin receptor cell-based functional assay, [Ca2+]i by FLIPR, CHO-OX1 cells
Details: Table 2; CHO-OX1 cells, EC90 of OXA; read-out: IC50 Bioactivity OX1
Protocol: Measurement of [Ca^2+]i using a FLIPR: CHO—OX1 or CHO—OX2 cells are seeded into black-walled clear-base 384-well plates (Costar) at a density of 20,000 cells per well in F12-K medium supplemented with 10% FBS and selection antibiotic (500 ug/ml G418 or 15 ug/ml Blasticidin) and cultured overnight. The cells are incubated with equal volume of calcium4 loading buffer (Molecular Devices, Inc.) containing 2.5 mM probenecid at 37° C. for 30 min, followed by putative OX1 or OX2 receptor antagonists (dose-range 0.1 nM-10 μM) for another 30 min.
The cells are incubated with equal volume of calcium6 loading buffer (Molecular Devices, Inc.) containing 2.5 mM probenecid at 37° C. for 2 h, followed by test compounds (dose-range 0.1 nM-10 μM) for another 30 min.

| IC50 [nM] | SMILES |
| --- | --- |
| 10 | Cc1nc(C(=O)N2CC(O)CCC2CNC(=O)c2cccc3cccnc23)c(-c2cccc(F)c2)s1 (racemic) [Example 51, N-((1-(5-(3-Fluorophenyl)-2-methylthiazole-4-carbonyl)-5-hydroxypiperidin-2-yl)methyl)quinoline-8-carboxamide] |
| 1 | Cc1nc(C(=O)N2CC(F)(F)CCC2CNC(=O)c2cccc3cccnc23)c(-c2cccc(F)c2)s1 (racemic) [Example 52, rac-N-((5,5-Difluoro-1-(5-(3-fluorophenyl)-2-methylthiazole-4-carbonyl)piperidin-2-yl)methyl)quinoline-8-carboxamide] |
| 65 | Cc1nc(C(=O)N2CC(N)CCC2CNC(=O)c2cccc3cccnc23)c(-c2cccc(F)c2)s1 (racemic) [Example 53, N-((5-Amino-1-(5-(3-fluorophenyl)-2-methylthiazole-4-carbonyl)piperidin-2-yl)methyl)quinoline-8-carboxamide] |
| 180 | Cc1nc(C(=O)N2CC(NCCO)CCC2CNC(=O)c2cccc3cccnc23)c(-c2cccc(F)c2)s1 (racemic) [Example 54, N-((1-(5-(3-Fluorophenyl)-2-methylthiazole-4-carbonyl)-5-(2-hydroxyethylamino)piperidin-2-yl)methyl)quinoline-8-carboxamide] |
| < 100 | Cc1nc(C(=O)N2CC(F)(F)CCC2CNC(=O)c2cccc3cccnc23)c(-c2ccccc2)s1 (racemic) [Example 56, rac-N-((5,5-Difluoro-1-(2-methyl-5-phenylthiazole-4-carbonyl)piperidin-2-yl)methyl)quinoline-8-carboxamide] |
| < 100 | Cc1cc2c(C(=O)NCC3CCC(F)(F)CN3C(=O)c3nc(C)sc3-c3ccc(F)cc3)cccc2o1 (racemic) [Example 57, rac-N-((5,5-Difluoro-1-(5-(4-fluorophenyl)-2-methylthiazole-4-carbonyl)piperidin-2-yl)methyl)-2-methylbenzofuran-4-carboxamide] |
| 1 | COc1c(F)cccc1C(=O)NCC1CCCC(C)N1C(=O)c1nc(C)sc1-c1ccc(F)cc1 (racemic) [Example 60, rac-3-Fluoro-N-((1-(5-(4-fluorophenyl)-2-methylthiazole-4-carbonyl)-6-methylpiperidin-2-yl)methyl)-2-methoxybenzamide] |
| 7 | Cc1cc2c(C(=O)NCC3CCCC(C)N3C(=O)c3nc(C)sc3-c3ccc(F)cc3)cccc2o1 (racemic) [Example 61, rac-N-((1-(5-(4-Fluorophenyl)-2-methylthiazole-4-carbonyl)-6-methylpiperidin-2-yl)methyl)-2-methylbenzofuran-4-carboxamide] |
| 2 | Cc1nc(C(=O)N2CCC[C@@H](C)[C@H]2CNC(=O)c2cccc3occc23)c(-c2ccc(F)cc2)s1 (racemic) [Example 63, rac-cis-N-((1-(5-(4-Fluorophenyl)-2-methylthiazole-4-carbonyl)-3-methylpiperidin-2-yl)methyl)benzofuran-4-carboxamide] |
| 3000 | Cc1nc(-c2ccccc2)c(C(=O)N2C[C@@H]3CCCC[C@@H]3[C@H]2CNC(=O)c2cccc3cccnc23)s1 (racemic) [Example 64, N-(((1S,3aR,7aS)-2-(2-Methyl-4-phenylthiazole-5-carbonyl)octahydro-1H-isoindol-1-yl)methyl)quinoline-8-carboxamide] |
| 6 | Cc1nc(C(=O)N2CCC[C@@H](C)[C@H]2CNc2nc3ccccc3s2)c(-c2ccc(F)cc2)s1 (racemic) [Example 72, rac-cis-(2-((Benzo[d]thiazol-2-ylamino)methyl)-3-methylpiperidin-1-yl)(5-(4-fluorophenyl)-2-methylthiazol-4-yl)methanone] |
| < 10 | Cc1nc(C(=O)N2CCC[C@@H](C)[C@H]2CNc2ccc(C(F)(F)F)cn2)c(-c2ccccc2)s1 (racemic) [Example 73, rac-cis-(3-Methyl-2-(((5-(trifluoromethyl)pyridin-2-yl)amino)methyl)piperidin-1-yl)(2-methyl-5-phenylthiazol-4-yl)methanone] |
| 58 | Cc1nc(C(=O)N2CCC[C@@H](C)[C@H]2CNc2cccc3cccnc23)c(-c2ccc(F)cc2)s1 (racemic) [Example 74, rac-cis-(3-Methyl-2-((quinolin-8-ylamino)methyl)piperidin-1-yl)(5-(4-fluorophenyl)-2-methylthiazol-4-yl)methanone] |
| 300 | CC[C@@H]1CCCN(C(=O)c2nc(C)sc2-c2ccc(F)cc2)[C@@H]1CNc1ccc(C(F)(F)F)cn1 (racemic) [Example 76, rac-cis-(3-Ethyl-2-(((5-(trifluoromethyl)pyridin-2-yl)amino)methyl)piperidin-1-yl)(5-(4-fluorophenyl)-2-methylthiazol-4-yl)methanone] |
| 2 | CCc1cnc(NC[C@@H]2[C@H](CC)CCCN2C(=O)c2nc(C)sc2-c2ccc(F)cc2)nc1 (racemic) [Example 78, rac-cis-(3-Ethyl-2-(((5-ethylpyrimidin-2-yl)amino)methyl)piperidin-1-yl)(5-(4-fluorophenyl)-2-methylthiazol-4-yl)methanone] |
| 140 | Cc1nc(C(=O)N2CCC[C@@H](C)[C@H]2COc2nc3ccccc3o2)c(-c2ccc(F)cc2)s1 (racemic) [Example 80, rac-cis-(2-((Benzo[d]oxazol-2-yloxy)methyl)-3-methylpiperidin-1-yl)(5-(4-fluorophenyl)-2-methylthiazol-4-yl)methanone] |
| 4 | Cc1nc(C(=O)N2CCC[C@@H](C)[C@H]2CNc2ncc(Cl)cn2)c(-c2ccc(F)cc2)s1 (racemic) [Example 82, rac-cis-(2-(((5-Chloropyrimidin-2-yl)amino)methyl)-3-methylpiperidin-1-yl)(5-(4-fluorophenyl)-2-methylthiazol-4-yl)methanone] |
| 30 | Cc1cnc(NC[C@@H]2[C@H](C)CCCN2C(=O)c2nc(C)sc2-c2ccc(F)cc2)nc1 (racemic) [Example 83, rac-cis-(3-Methyl-2-(((5-methylpyrimidin-2-yl)amino)methyl)piperidin-1-yl)(5-(4-fluorophenyl)-2-methylthiazol-4-yl)methanone] |
| 35 | Cc1nc(C(=O)N2CCC[C@@H](C(C)C)[C@H]2CNc2nc3ccccc3o2)c(-c2ccc(F)cc2)s1 (racemic) [Example 84, rac-cis-((2S,3S)-2-((Benzo[d]oxazol-2-ylamino)methyl)-3-isopropylpiperidin-1-yl)(5-(4-fluorophenyl)-2-methylthiazol-4-yl)methanone] |
| 22 | Cc1ccc(NC[C@@H]2[C@H](C)CCCN2C(=O)c2nc(C)sc2-c2ccc(F)cc2)nc1 (racemic) [Example 86, rac-cis-(3-Methyl-2-(((5-methylpyridin-2-yl)amino)methyl)piperidin-1-yl)(5-(4-fluorophenyl)-2-methylthiazol-4-yl)methanone] |
| 220 | Cc1nc(C(=O)N2CCC[C@@H](C)[C@H]2CNc2cccc(C(F)(F)F)n2)c(-c2ccc(F)cc2)s1 (racemic) [Example 87, rac-cis-(3-Methyl-2-(((6-(trifluoromethyl)pyridin-2-yl)amino)methyl)piperidin-1-yl) (5-(4-fluorophenyl)-2-methylthiazol-4-yl)methanone] |
| 42 | COc1cnc(NC[C@@H]2[C@H](C)CCCN2C(=O)c2nc(C)sc2-c2ccc(F)cc2)nc1 (racemic) [Example 88, rac-cis-(2-(((5-Methoxypyrimidin-2-yl)amino)methyl)-3-methylpiperidin-1-yl) (5-(4-fluorophenyl)-2-methylthiazol-4-yl)methanone] |
| 140 | Cc1nc(C(=O)N2CCC[C@@H](C)[C@H]2CNc2ccc(C#N)cn2)c(-c2ccc(F)cc2)s1 (racemic) [Example 91, rac-cis-6-(((1-(5-(4-Fluorophenyl)-2-methylthiazole-4-carbonyl)-3-methylpiperidin-2-yl)methyl)amino)nicotinonitrile] |
| 560 | CO[C@@H]1CCCN(C(=O)c2nc(C)sc2-c2ccc(F)cc2)[C@@H]1CNc1ccc(C(F)(F)F)cn1 (racemic) [Example 92, rac-cis-(3-Methoxy-2-(((5-(trifluoromethyl)pyridin-2-yl)amino)methyl)piperidin-1-yl) (5-(4-fluorophenyl)-2-methylthiazol-4-yl)methanone] |
| 100 | CO[C@@H]1CCCN(C(=O)c2nc(C)sc2-c2ccc(F)cc2)[C@@H]1CNc1ncc(Cl)cn1 (racemic) [Example 93, rac-cis-(2-(((5-Chloropyrimidin-2-yl)amino)methyl)-3-methoxypiperidin-1-yl)(5-(4-fluorophenyl)-2-methylthiazol-4-yl)methanone] |

| SMILES | IC50 [nM] |
| --- | --- |
| O=C(NC[C@@H]1[C@H]2CCCC[C@H]2CN1C(=O)c1ccccc1-c1ccccc1)c1cccc2cccnc12 (racemic) [Example 66, N-(((1S,3aR,7aS)-2-(Biphenylcarbonyl)octahydro-1H-isoindol-1-yl)methyl)quinoline-8-carboxamide] | 350 |
